Measured values: patent US20260183269A1, “PHARMACEUTICAL COMPOSITION FOR PREVENTION OR TREATMENT OF DRUG-RELATED PEPTIC ULCER COMPRISING ZASTAPRAZAN OR PHARMACEUTICALLY ACCEPTABLE SALT THEREOF” (priority 2022, published 2026)
Blank lines part the entries; values can stand above or below the molecule they belong to.

What was measured:
[1] = Clinical PK interaction, PART 1: zastaprazan and aceclofenac in healthy subjects; assay type: in vivo, human (healthy subjects); settings: for Cmax / AUC(0-t): human, oral; for Cmax: n = 22, plasma, mean ± SD; for AUC(0-t): plasma, n = 22, mean ± SD
Protocol: (§1) Zastaprazan may be used not only for acid-related gastric diseases but also for preventing gastric damage caused by NSAIDs.
(§2) • JP-1366, 20 mg 2 capsules (zastaprazan citrate salt 40 mg)
• Aertal tablet (aceclofenac 100 mg)
Subjects who volunteered for PART 1 were assigned a subject number on the day before the first clinical trial drug administration (−1 d) of Period 1, and then administered one aceclofenac tablet on 1 d of Period 1, administered two JP-1366 capsules on 4 d to 8 d of Period 2, and co-administered two JP-1366 capsules and one aceclofenac tablet on 9 d of Period 3. Blood samples were collected from each subject at a designated time for the PK evaluation of the clinical trial drug, and all subjects underwent safety evaluation according to the designated schedule.
(§3) Blood samples were collected at designated times for the PK evaluation of zastaprazan (JP-1366).

[2] = Clinical PK interaction, PART 2: zastaprazan and meloxicam in healthy subjects; assay type: in vivo, human (healthy subjects)
Protocol: as §1, §2
• Mobic capsule 15 mg (meloxicam 15 mg)
Subjects who volunteered for PART 2 were assigned a subject number on the day before the first clinical trial drug administration (−1 d) of Period 1, and then administered two JP-1366 capsules on 1 d to 5 d of Period 1, administered one meloxicam capsule on 15 d to 19 d of Period 2, and co-administered two JP-1366 capsules and one meloxicam capsule on 22 d to 26 d of Period 3. Blood samples were collected from each subject at a designated time for the PK evaluation of the clinical trial drug, and all subjects underwent safety evaluation according to the designated schedule.
as §3

[3] = test system: rat gastric damage model induced by naproxen; assay: Antiulcer activity in naproxen-induced acute peptic ulcer (gastric damage) rat model; assay type: in vivo, Male Sprague-Dawley (SD) rat
Protocol: [table] […] The dose for each individual was converted based on the body weight before administration, and is administered orally in a dosage of 5 ml per kg of body weight. […] Administration frequency and administration period: Once a day for five days (a total of 5 times) After the test, the gastric damage by the test substance was evaluated using the ulcer index. […] The removed stomach was incised along the greater curvature, the contents are removed, and the incised stomach was washed cleanly with saline solution, spread out well with a cotton swab, fixed with pins, and then photographed. The gastric damage area and the total stomach area were measured from the photographed stomach using an image program (Leica Application Suite V4), and the ulcer index was calculated as Ulcer index (%)=Damage area (mm^2)/Total area (mm^2)×100. The experimental results were statistically analyzed through Mann-Whitney analysis using a commercial statistical processing program (IBM SPSS Statistics version 25.0).

clinical = assay type: in vivo, human (healthy subjects)
Protocol: as §2
Blood samples were collected from each subject at a designated time for the PK evaluation of the clinical trial drug, and all subjects underwent safety evaluation according to the designated schedule.
as §3

[4] = Safety evaluation of zastaprazan with aceclofenac, meloxicam, or naproxen in healthy subjects; assay type: in vivo, human (healthy subjects); settings: zastaprazan 40 mg alone and co-administered with aceclofenac 100 mg, meloxicam 15 mg or naproxen 500 mg
Text: Zastaprazan may be used not only for acid-related gastric diseases but also for preventing gastric damage caused by NSAIDs. […] Blood samples were collected from each subject at a designated time for the PK evaluation of the clinical trial drug, and all subjects underwent safety evaluation according to the designated schedule. All subjects who completed the clinical trial underwent a post-study visit on 14 d to 20 d, including vital sign measurement, physical examination, adverse reaction check, confirmation of prior/concurrent medication, clinical laboratory tests, and electrocardiography. […] Blood samples were collected from each subject at a designated time for the PK evaluation of the clinical trial drug, and all subjects underwent safety evaluation according to the designated schedule. All subjects who completed the clinical trial underwent a post-study visit on 31 d to 37 d, including vital sign measurement, physical examination, adverse reaction check, confirmation of prior/concurrent medication, clinical laboratory tests, and electrocardiography. […] Blood samples were collected from each subject at a designated time for the PK evaluation of the clinical trial drug, and all subjects underwent safety evaluation according to the designated schedule. […]

Cmax ([1]; A (aceclofenac 100 mg alone), read-out: aceclofenac Cmax, SS): 10100 ± 3160 ng/mL
Cmax ([1]; Z + A (zastaprazan 40 mg and aceclofenac 100 mg), read-out: aceclofenac Cmax, SS): 11800 ± 2560 ng/mL
AUC(0-t) ([1]; A (aceclofenac 100 mg alone), read-out: aceclofenac AUCT, SS): 20400 ± 4870 ng·h/mL
AUC(0-t) ([1]; Z + A (zastaprazan 40 mg and aceclofenac 100 mg), read-out: aceclofenac AUCT, SS): 20800 ± 3840 ng·h/mL
Compound: O=C(O)COC(=O)Cc1ccccc1Nc1c(Cl)cccc1Cl [Aceclofenac, aceclofenac, reference compound]

AUC(0-t) ([2]; human, in vivo, oral, M (meloxicam 15 mg alone), n = 22, mean ± SD, read-out: meloxicam AUCT, SS): 41800 ± 16400 ng·h/mL
AUC(0-t) ([2]; human, in vivo, oral, Z + M (zastaprazan 40 mg and meloxicam 15 mg), n = 22, mean ± SD, read-out: meloxicam AUCT, SS): 44000 ± 18800 ng·h/mL
Cmax ([2]; human, oral, M (meloxicam 15 mg alone), n = 22, plasma, mean ± SD, read-out: meloxicam Cmax, SS): 2480 ± 880 ng/mL
Cmax ([2]; human, oral, Z + M (zastaprazan 40 mg and meloxicam 15 mg), n = 22, plasma, mean ± SD, read-out: meloxicam Cmax, SS): 2640 ± 920 ng/mL
Compound: Cc1cnc(NC(=O)C2=C(O)c3ccccc3S(=O)(=O)N2C)s1 [Meloxicam, meloxicam, reference compound]

geometric mean ratio (GMR) [90% CI] of zastaprazan AUCT,SS ([1]; Z+A to Z): 0.9490 (0.9096 to 0.9902)
geometric mean ratio (GMR) [90% CI] of zastaprazan Cmax,SS ([1]; Z+A to Z): 1.0868 (0.9554 to 1.2362)
Cmax ([1]; Z (zastaprazan 40 mg alone), read-out: zastaprazan Cmax, SS): 242 ± 84 ng/mL
AUC(0-t) ([1]; Z (zastaprazan 40 mg alone), read-out: zastaprazan AUCT, SS): 1540 ± 724 ng·h/mL
AUC(0-t) ([1]; Z + A (zastaprazan 40 mg and aceclofenac 100 mg), read-out: zastaprazan AUCT, SS): 1440 ± 627 ng·h/mL
GMR [90% CI] of zastaprazan AUCT,SS ([2]; human, in vivo): 1.3332 (1.1494 to 1.5463)
AUC(0-t) ([2]; human, in vivo, 40 mg): 1120 ± 534 ng·h/mL
Cmax ([2]; human, in vivo, 40 mg): 237 ± 72.8 ng/mL
AUC(0-t) (clinical; human, in vivo, oral, Z (zastaprazan 40 mg alone), n = 22, mean ± SD, read-out: zastaprazan AUCT, SS): 1380 ± 695 ng·h/mL
Cmax (clinical; human, oral, Z (zastaprazan 40 mg alone), n = 22, plasma, mean ± SD, read-out: zastaprazan Cmax, SS): 264 ± 88.5 ng/mL
Compound: Cc1cccc(C)c1CNc1cc(C(=O)N2CCC2)cn2c(C)c(C)nc12.O=C(O)CC(O)(CC(=O)O)C(=O)O [Zastaprazan, azetidin-1-yl{8-[(2,6-dimethylbenzyl)amino]-2,3-dimethylimidazo[1,2-a]pyridin-6-yl}methanone citrate salt]
ulcer area (antiulcer activity), FIG. 1 ([3]; JP-1366 2 mg/kg oral once a day for five days with naproxen 40 mg/kg, non-fasting rats, stomach removed 4 h after last naproxen): rapid decrease in the ulcer area
antiulcer efficacy compared with esomeprazole ([3]; JP-1366 2 mg/kg vs esomeprazole 2 mg/kg oral, once a day for five days with naproxen 40 mg/kg): superior to that of the control substance, esomeprazole
PK interaction between zastaprazan and aceclofenac ([1]; summary of PART 1): No clinically significant PK interactions
PK interaction between zastaprazan and meloxicam ([2]; summary of PART 2): No clinically significant PK interactions
PK interaction between zastaprazan and naproxen (clinical; summary of PART 3): No clinically significant PK interactions
safety [4]: no safety concerns
